Experimental data published in ChEMBL document CHEMBL5143656, “Polyphenolic compounds: Synthesis, assessment of antimicrobial effect and enzymes inhibition against important medicinal enzymes with computational details” (Bioorg Med Chem Lett, 2022).
Values after ≈ are worked out from the molar mass of the structure shown.

What was measured:
Tyrosinase [1] = biological target: T1, Tyrosinase (Homo sapiens, UniProt P14679); assay: Inhibition of tyrosinase (unknown origin)
T1 sequence (P14679 whole entry): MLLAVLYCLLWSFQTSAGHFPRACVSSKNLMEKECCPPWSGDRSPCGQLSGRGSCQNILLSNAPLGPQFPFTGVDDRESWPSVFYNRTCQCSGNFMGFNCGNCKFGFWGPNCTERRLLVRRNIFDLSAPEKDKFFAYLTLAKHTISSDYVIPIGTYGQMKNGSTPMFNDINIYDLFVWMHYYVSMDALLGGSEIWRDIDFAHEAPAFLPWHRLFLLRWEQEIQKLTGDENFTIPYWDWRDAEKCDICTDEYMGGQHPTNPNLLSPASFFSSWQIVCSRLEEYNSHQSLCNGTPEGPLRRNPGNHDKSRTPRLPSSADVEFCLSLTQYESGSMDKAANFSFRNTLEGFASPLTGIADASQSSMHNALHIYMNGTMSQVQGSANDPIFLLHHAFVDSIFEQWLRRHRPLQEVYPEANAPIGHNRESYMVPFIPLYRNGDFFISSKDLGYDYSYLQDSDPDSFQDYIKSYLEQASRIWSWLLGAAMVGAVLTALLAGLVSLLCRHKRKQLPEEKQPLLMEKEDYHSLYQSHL

Acetylcholinesterase = Acetylcholinesterase (Homo sapiens, UniProt P22303); assay: Inhibition of AChE (unknown origin) using […] as substrate incubated for 10 mins by Ellman's method
Staphylococcus aureus = assay: Antimicrobial activity Staphylococcus aureus against incubated for 24 hrs; format: functional
Tyrosinase [2] = biological target: T1, Tyrosinase; assay: Inhibition of tyrosinase (unknown origin) using L-DOPA as substrate incubated for 10 mins
Klebsiella pneumoniae = assay: Antimicrobial activity Klebsiella pneumoniae against incubated for 24 hrs; format: functional
Cholinesterase = Cholinesterase (Homo sapiens, UniProt P06276); assay: Inhibition of BChE (unknown origin) using […] as substrate incubated for 10 mins by Ellman's method
Candida albicans = assay: Antimicrobial activity Candida albicans against incubated for 24 hrs; format: functional
PC-3 = assay: Cytotoxicity in human PC3 cells assessed as reduction in cell viability incubated for 24 hrs by MTT assay; format: functional, cell-based; details: PC-3, 24 h
Cyberlindnera jadinii = assay: Antimicrobial activity Candida utilis against incubated for 24 hrs; format: functional; details: Williopsis jadinii
Enterococcus faecalis = assay: Antimicrobial activity Enterococcus faecalis against incubated for 24 hrs; format: functional
Escherichia coli = assay: Antimicrobial activity Escherichia coli against incubated for 24 hrs; format: functional

Cholinesterase, sequence (P06276 whole entry): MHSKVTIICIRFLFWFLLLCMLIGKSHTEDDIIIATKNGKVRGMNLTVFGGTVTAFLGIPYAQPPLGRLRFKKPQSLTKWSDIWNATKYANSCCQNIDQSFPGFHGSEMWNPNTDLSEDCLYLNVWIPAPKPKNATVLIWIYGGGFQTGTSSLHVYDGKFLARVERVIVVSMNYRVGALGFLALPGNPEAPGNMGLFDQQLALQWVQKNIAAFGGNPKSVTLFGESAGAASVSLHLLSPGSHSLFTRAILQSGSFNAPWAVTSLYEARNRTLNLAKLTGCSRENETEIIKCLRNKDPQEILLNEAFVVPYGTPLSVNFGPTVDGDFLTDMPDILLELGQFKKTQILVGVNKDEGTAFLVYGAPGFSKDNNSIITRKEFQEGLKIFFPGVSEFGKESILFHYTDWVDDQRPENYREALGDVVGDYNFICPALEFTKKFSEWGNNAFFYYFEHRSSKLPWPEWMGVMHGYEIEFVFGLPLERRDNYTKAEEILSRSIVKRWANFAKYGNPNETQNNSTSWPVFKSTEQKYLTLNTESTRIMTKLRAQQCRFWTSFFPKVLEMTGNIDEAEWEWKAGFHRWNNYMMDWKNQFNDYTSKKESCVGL
Acetylcholinesterase, sequence (P22303 whole entry): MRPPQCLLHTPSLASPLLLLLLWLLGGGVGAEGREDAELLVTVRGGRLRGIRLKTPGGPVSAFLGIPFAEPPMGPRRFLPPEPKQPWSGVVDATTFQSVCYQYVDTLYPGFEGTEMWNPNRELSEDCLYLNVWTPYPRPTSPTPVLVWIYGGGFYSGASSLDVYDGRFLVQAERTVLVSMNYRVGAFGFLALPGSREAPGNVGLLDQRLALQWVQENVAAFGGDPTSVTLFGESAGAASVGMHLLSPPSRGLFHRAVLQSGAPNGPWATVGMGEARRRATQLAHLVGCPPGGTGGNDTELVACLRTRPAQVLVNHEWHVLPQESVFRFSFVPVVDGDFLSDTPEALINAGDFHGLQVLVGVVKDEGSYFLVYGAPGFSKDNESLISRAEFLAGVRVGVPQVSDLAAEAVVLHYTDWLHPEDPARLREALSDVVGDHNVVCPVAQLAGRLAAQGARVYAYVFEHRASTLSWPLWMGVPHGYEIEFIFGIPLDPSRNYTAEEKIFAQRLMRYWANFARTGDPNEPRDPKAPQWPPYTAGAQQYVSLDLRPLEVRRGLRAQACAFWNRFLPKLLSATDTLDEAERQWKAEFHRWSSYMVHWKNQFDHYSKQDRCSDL

SMILES | IC50 (Tyrosinase [1]) [µM] | IC50 (Acetylcholinesterase) [µM] | MIC (Staphylococcus aureus) [µg/mL] | IC50 (Tyrosinase [2]) [µM] | MIC (Klebsiella pneumoniae) [µg/mL] | IC50 (Cholinesterase) [µM] | MIC (Candida albicans) [µg/mL] | IC50 (PC-3) [µg/mL] | MIC (Cyberlindnera jadinii) [µg/mL] | MIC (Enterococcus faecalis) [µg/mL] | MIC (Escherichia coli) [µg/mL]
O=c1c(O)c(-c2ccc(O)cc2)oc2cc(O)cc(O)c12 [KAEMPFEROL] | 65.1 |  |  |  |  |  |  |  |  |  | 
CCC(c1ccc(O)c(OC)c1)c1cccc(O)c1O (stereo not drawn) |  | 5.66 | 284 (≈ 1040 µM) | 2.32 | 277 (≈ 1010 µM) | 2.82 | 448 (≈ 1630 µM) | 16.1 (≈ 58.9 µM) | 467 (≈ 1700 µM) | 369 (≈ 1350 µM) | 181 (≈ 659 µM)
CCC(c1ccc(O)c(OC)c1)c1ccc(OC)cc1O (stereo not drawn) |  | 4.76 | 184 (≈ 638 µM) | 2.83 | 204 (≈ 707 µM) | 2.25 | 220 (≈ 761 µM) | 12.2 (≈ 42.2 µM) | 249 (≈ 864 µM) | 112 (≈ 389 µM) | 269 (≈ 933 µM)
O=C(/C=C/c1ccc(O)cc1)OC[C@H]1O[C@@H](Oc2c(-c3ccc(O)cc3)oc3cc(O)cc(O)c3c2=O)[C@H](O)[C@@H](O)[C@@H]1O [TILIROSIDE] | 78.5 |  |  |  |  |  |  |  |  |  | 
